Data: US11242327B2, “Analgesic compounds” (RECURIUM IP HOLDINGS, LLC, priority 2017, dated 2022)
Counter-ions that a name gives are not always drawn. Like-named read-outs stand apart in the source and are kept apart here.

Assays:
Format in all cases: in vivo
male Sprague-Dawley rats [1] = test: Spinal Nerve Ligation (SNL) Neuropathic Pain Test; conditions: rat, oral, 100 mg/kg
Method: Neuropathy was induced in non-fasted male Sprague-Dawley rats weighing 75-100 g by surgically ligating the 4th and 5th lumbar spinal nerves (L4 and L5), a procedure also known as spinal nerve ligation (SNL). Animals were placed in individual acrylic chambers on a metal mesh surface and allowed to acclimate to their surroundings for a minimum of 15 minutes before testing. Mechanical sensitivity was assessed using 8 Semmes-Weinstein filaments (Stoelting©; Wood Dale, Ill., USA) with varying stiffness (0.4, 0.6, 1.0, 2.0, 4.0, 6.0, 8.0, and 15 g) according to an up-down method to determine 50% response thresholds. Each filament was presented perpendicular to the plantar surface with sufficient force to cause slight buckling against the paw and held for approximately 6 seconds or until a positive response is noted (paw sharply withdrawn). Testing was initiated with the 2.0 g filament. In the absence of a paw withdrawal response, the next stronger stimulus was presented. In the event of paw withdrawal, the next weaker stimulus was used. This process was repeated until 4 responses after the initial change in response (no response to positive response or positive response to no response) were obtained. […] The 50% response threshold was calculated using the formula: 50% response threshold (g)=(10^(Xf+kδ))/10,000;
Xf=value (in log units) of the final von Frey filament used;
k=tabular value for the pattern of positive/negative responses (See Chaplan, et al. “Quantitative Assessment of Tactile Allodynia in the Rat Paw” J. Neurosci. Meth. 53.1 (1994): 56-63);
[…] =mean difference (in log units) between stimuli.
The mean and standard error of the mean (SEM) were determined for each paw for each treatment group at each time point. Thresholds were determined prior to surgery and again 14 days later. After 14 days, test or control compounds were administered and thresholds were again determined 1, 2, and 4 hours after compound administration. Median response thresholds in compound-treated animals were compared to those in vehicle treated animals to determine anti-allodynic efficacy of test and control compounds. Test compounds were administered orally at concentrations of 10, 30 or 100 mg/kg and gabapentin was administered orally at a concentration of 100 mg/kg. The control group received the vehicle (sterile water). In Table 7, ‘A’ designates a 50% threshold of ≥8 grams, ‘B’ designates a 50% threshold of ≥6 and <8 grams, and ‘C’ designates a 50% threshold of <6 grams.
The results provided in Table 7 are for oral administration in rats.

male Sprague-Dawley rats [2] = test: Post-Incisional (Brennan) Pain Test; conditions: rat, subcutaneously, 10 mg/kg
Method: Incisional pain was induced in non-fasted male Sprague-Dawley rats weighing 180-300 g by making a 1-cm plantar incision in the left hind paw and is designed to mimic pain and sensitivity similar to what is reported by patients after surgery. Dosing occurred at the time of incision and spontaneous pain was measured 4 and 24 hours post-dosing using a cumulative pain score. The unrestrained animals were placed on a metal mesh platform and allowed to acclimate for about 15 min/ Each animal was closely observed during a 1-min period repeated every 5 min for 1 h (12 times total). Depending on the position in which the foot was found during the scoring period, a score of 0, 1, or 2 was given. Full weight bearing of the foot (score=0) was present if the skin on the plantar surface of the paw wound was blanched or distorted by the mesh. If the foot was completely off the mesh, or one or more instances of licking or flinching was observed, a score of 2 was recorded and the licking or flinching was noted but not counted. If the plantar surface of the paw touched the mesh without blanching or distorting, a score of 1 was given. The sum of the 12 scores obtained during the 1 h session was calculated (maximum score=24) for each animal. Observations were made during hours 4 and 24. Test articles were administered orally at concentrations of 10, 30 or 100 mg/kg and ketoprofen was administered subcutaneously at a concentration of 10 mg/kg. The control group received the vehicle (sterile water). In Table 6, ‘A’ designates a cumulative pain score of ≤11, ‘B’ designates >11 and ≤16, and ‘C’ designates >16.
The results provided in Table 6 are for oral administration in rats.

male Sprague-Dawley rats [3] = test: Formalin Paw Test, rat, oral; conditions: 30 mg/kg; for Early Phase, seconds of paw licking: early/acute phase (0-10 minutes); for Late Phase, seconds of paw licking: late/tonic phase (10-35 minutes)
Method: One test compound or the vehicle was administered to each rat or mouse in each test group (8 rats or mice per group). Non-fasted male Sprague-Dawley rats weighing 200-225 g or non-fasted male ICR mice weighing 23±3 g were used. […] Responses were measured every 5 minutes after the formalin injection for 35 minutes. The results in Table 2 are for oral administration in rat and the results in Table 3 are for intraperitoneal administration in mouse. In Tables 2 and 3, 'A' designates <70 seconds of paw licking, 'B' designates >70 and <165 seconds of paw licking, and 'C' designates >165 seconds of paw licking.

[4] = Bioavailability Test (rat pharmacokinetics); conditions: for F: PO 30 mg/kg vs IV 3 mg/kg; for Vd: read-out: Vdss
Method: Oral bioavailability of compounds of Formulae (Ie), (Ih), (Ik), and (Ir), or a pharmaceutically acceptable salt of any of the foregoing, were evaluated in fasted male Sprague-Dawley (SD) rats weighing 200-225g. Compounds were dosed at 3 mg/kg (IV) and 30 mg/kg (PO). Unless otherwise noted, compounds were dissolved in 0.9% saline for IV dosing and 100% sterile water for PO dosing. Pharmacokinetic parameters were determined using Phoenix WinNonlin (v7.0). […]

male Sprague-Dawley rats [5] = test: UVB Inflammatory Pain Test (thermal hyperalgesia); conditions: rat, oral; for paw withdrawal latency, 1 h: 1 h after dosing; for paw withdrawal latency, 2 h: 2 h after dosing; for paw withdrawal latency, 4 h: 4 h after dosing
Method: UVB irradiation to the surface of the hind paw was used to induce cutaneous inflammatory pain in non-fasted male Sprague-Dawley rats weighing 175-300 g. On Day −3, animals were restrained and the plantar surface of the left hind paw was exposed to 350 mJoules/cm^2 of UVB irradiation using a narrow band UVB light source (Daavlin®, Bryan, Ohio). Following UVB irradiation, animals were returned to their home cage. Thermal hyperalgesia was assessed prior to dosing and approximately 1, 2, and 4 hours after dosing on Day 0 using a radiant heat plantar test apparatus (IITC Life Sciences©; Woodland Hills, Calif.). Animals were placed in individual acrylic chambers on a glass platform warmed to 30±2° C. and allowed to acclimate to their surroundings for a minimum of 15 minutes before testing. The stimulus was presented to the plantar surface and the timer was activated. The stimulus intensity was set such that pre-injury paw withdrawal latencies were approximately 12-18 seconds. Paw withdrawal latency values were recorded at the first observed nocifensive behavior (paw withdrawal, flinching, biting and/or licking). Three paw withdrawal latencies were measured for each hind paw per time point. The mean of the 3 values was taken as the paw withdrawal latency for that time point. A maximum cutoff latency of 30 seconds was used to prevent injury to the animal. The mean and standard error of the mean (SEM) were determined for each paw for each treatment group at each time point. Test compounds were administered orally at concentrations of 3, 10, 30 or 100 mg/kg; celecoxib was administered orally at a concentration of 30 mg/kg; and acetaminophen was administered orally at a concentration of 300 mg/kg. The control group received the vehicle (sterile water). In Table 4, ‘A’ designates >8 seconds of paw withdrawal latency, ‘B’ designates >6 and <8 seconds of paw withdrawal latency, and ‘C’ designates <6 seconds of paw withdrawal latency.
The results provided in Table 4 are for oral administration in rats. […] Furthermore, while acetaminophen was dosed at 300 mg/kg, compounds of Formulae (Ie), (Ih) and (Ik), or a pharmaceutically acceptable salt of any of the foregoing, were dosed at 3 mg/kg, 10 mg/kg and 100 mg/kg.

[6] = male, Sprague-Dawley, in vivo, IV 3 mg/kg, 0.9% saline
[7] = male, Sprague-Dawley, in vivo, PO 30 mg/kg, sterile water
[8] = male, Sprague-Dawley, in vivo, IV 3 mg/kg, DMSO, PEG400, and 30% HPβCD (5/20/75)
[9] = male, Sprague-Dawley, in vivo, PO 30 mg/kg, PEG400, PVP, Tween 80, 0.5% CMC in water (9/0.5/0.5/90)

SMILES | Early Phase, seconds of paw licking (male Sprague-Dawley rats [3]) | Late Phase, seconds of paw licking (male Sprague-Dawley rats [3]) | F [4] [%] | AUC(0-inf) [4, 6] [µM·h] | clearance [4, 6] [mL/min/kg] | half-life [4, 6] [h] | Vd [4, 6] [L/kg] | AUC(0-inf) [4, 7] [µM·h] | Cmax [4, 7] [µM] | Tmax [4, 7] [h] | half-life [4, 7] [h] | paw withdrawal latency, 1 h (male Sprague-Dawley rats [5]; 3 mg/kg) | paw withdrawal latency, 2 h (male Sprague-Dawley rats [5]; 3 mg/kg) | paw withdrawal latency, 4 h (male Sprague-Dawley rats [5]; 3 mg/kg) | paw withdrawal latency, 1 h (male Sprague-Dawley rats [5]; 10 mg/kg) | paw withdrawal latency, 2 h (male Sprague-Dawley rats [5]; 10 mg/kg) | paw withdrawal latency, 4 h (male Sprague-Dawley rats [5]; 10 mg/kg) | paw withdrawal latency, 1 h (male Sprague-Dawley rats [5]; 30 mg/kg) | paw withdrawal latency, 2 h (male Sprague-Dawley rats [5]; 30 mg/kg) | paw withdrawal latency, 4 h (male Sprague-Dawley rats [5]; 30 mg/kg) | other results
NCC1(CC(=O)O)CCCCC1 [Gabapentin, reference compound] |  |  |  |  |  |  |  |  |  |  |  |  |  |  |  |  |  |  |  |  | 50% response threshold, 1 h (male Sprague-Dawley rats [1]; 1 h after administration): B (a 50% threshold of ≥6 and <8 grams); 50% response threshold, 2 h (male Sprague-Dawley rats [1]; 2 h after administration): A (a 50% threshold of ≥8 grams); 50% response threshold, 4 h (male Sprague-Dawley rats [1]; 4 h after administration): A (a 50% threshold of ≥8 grams)
CC(C(=O)O)c1cccc(C(=O)c2ccccc2)c1 (stereo not shown) [Ketoprofen, reference compound] |  |  |  |  |  |  |  |  |  |  |  |  |  |  |  |  |  |  |  |  | cumulative pain score, 4 h (male Sprague-Dawley rats [2]; 4 h post-dosing): B (>11 and ≤16); cumulative pain score, 24 h (male Sprague-Dawley rats [2]; 24 h post-dosing): A (a cumulative pain score of ≤11)
O=C(CO)NC12CC(C(F)(F)F)(C1)C2 [Compound 7, 2-Hydroxy-N-(3-(trifluoromethyl)bicyclo[1.1.1]pentan-1-yl)acetamide] | A (<70 seconds of paw licking) | B (>70 and <165 seconds of paw licking) | 138 | 9 | 27 | 2.3 | 2.5 | 119 | 67 | 0.19 | 2.5 | B (>6 and <8 seconds of paw withdrawal latency) | B (>6 and <8 seconds of paw withdrawal latency) | B (>6 and <8 seconds of paw withdrawal latency) | C (<6 seconds of paw withdrawal latency) | C (<6 seconds of paw withdrawal latency) | B (>6 and <8 seconds of paw withdrawal latency) | B (>6 and <8 seconds of paw withdrawal latency) | B (>6 and <8 seconds of paw withdrawal latency) | B (>6 and <8 seconds of paw withdrawal latency) | paw withdrawal latency, 1 h (male Sprague-Dawley rats [5]; 100 mg/kg): C (<6 seconds of paw withdrawal latency); paw withdrawal latency, 2 h (male Sprague-Dawley rats [5]; 100 mg/kg): C (<6 seconds of paw withdrawal latency); paw withdrawal latency, 4 h (male Sprague-Dawley rats [5]; 100 mg/kg): B (>6 and <8 seconds of paw withdrawal latency)
CC(F)(F)c1csc(C23CC(N)(C2)C3)n1 [Compound 25, 3-(4-(1,1-difluoroethyl)thiazol-2-yl)bicyclo[1.1.1]pentan-1-amine hydrochloride] | A (<70 seconds of paw licking) | A (<70 seconds of paw licking) |  |  |  |  |  |  |  |  |  |  |  |  |  |  |  |  |  |  | F ([4]; vehicles of footnote a): 115%; AUC(0-inf) [4, 8]: 13 µM·h; clearance [4, 8]: 17 mL/min/kg; half-life [4, 8]: 3.7 h; Vd [4, 8]: 3.2 L/kg; Cmax [4, 9]: 24 µM; Tmax [4, 9]: 1.2 h; AUC(0-t) ([4]; male, Sprague-Dawley, in vivo, PO 30 mg/kg, PEG400, PVP, Tween 80, 0.5% CMC in water (9/0.5/0.5/90), read-out: AUC24h): 144 µM·h
Cl.O=C(O)CNC12CC(C(F)(F)F)(C1)C2 [Compound 6, (3-(trifluoromethyl)bicyclo[1.1.1]pentan-1-yl)glycine hydrochloride] | A (<70 seconds of paw licking) | B (>70 and <165 seconds of paw licking) | 134 | 1.8 | 121 | 0.15 | 0.79 | 29 | 32 | 0.22 | 1.6 | C (<6 seconds of paw withdrawal latency) | B (>6 and <8 seconds of paw withdrawal latency) | A (>8 seconds of paw withdrawal latency) | B (>6 and <8 seconds of paw withdrawal latency) | B (>6 and <8 seconds of paw withdrawal latency) | B (>6 and <8 seconds of paw withdrawal latency) | A (>8 seconds of paw withdrawal latency) | B (>6 and <8 seconds of paw withdrawal latency) | B (>6 and <8 seconds of paw withdrawal latency) | paw withdrawal latency, 1 h (male Sprague-Dawley rats [5]; 100 mg/kg): A (>8 seconds of paw withdrawal latency); paw withdrawal latency, 2 h (male Sprague-Dawley rats [5]; 100 mg/kg): A (>8 seconds of paw withdrawal latency); paw withdrawal latency, 4 h (male Sprague-Dawley rats [5]; 100 mg/kg): B (>6 and <8 seconds of paw withdrawal latency)
